Measurements from ChEMBL document CHEMBL3046366, “Inhibitory effect of curcumin analogs on tissue factor procoagulant activity and their preliminary structureactivity relationships” (Med Chem Res, 2013).

target: T1, Tissue factor (Homo sapiens, UniProt P13726); test: Ratio of curcumin IC50 to compound IC50 for tissue factor in LPS-induced Homo sapiens (human) THP1 cells; format: cell-based; details: THP-1
T1 sequence (P13726 whole entry): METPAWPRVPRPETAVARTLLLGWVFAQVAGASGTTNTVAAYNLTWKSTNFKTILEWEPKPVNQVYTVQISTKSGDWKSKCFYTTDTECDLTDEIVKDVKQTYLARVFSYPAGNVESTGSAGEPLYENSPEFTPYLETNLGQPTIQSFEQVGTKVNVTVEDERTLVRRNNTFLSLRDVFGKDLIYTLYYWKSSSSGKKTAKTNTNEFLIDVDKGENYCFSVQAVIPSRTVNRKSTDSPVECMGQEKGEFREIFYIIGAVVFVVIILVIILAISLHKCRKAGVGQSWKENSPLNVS

Ratio IC50 | Structure (SMILES)
10000 | O=C(/C=C/c1ccccc1)c1ccc(O)cc1 [4'-HYDROXYCHALCONE]
10000 | O=C(/C=C/c1ccccc1)/C=C/c1ccccc1

target: T1, Tissue factor; test: Inhibition of tissue factor in Homo sapiens (human) THP1-cells using factor 10a chromogenic substrate assessed as inhibition of LPS-iduced procoagulant activity incubated for 1 hr prior to LPS-challenge measured after 5 hr by spectrophotometric analysis; format: cell-based; details: thp-1

Structure (SMILES) | IC50
O=C(/C=C/c1ccc(O)cc1)c1ccc(O)cc1 [4,4'-DIHYDROXYCHALCONE] | 0.96 nM
COc1ccc(/C=C/C(=O)/C=C/c2ccc(OC)cc2)cc1 | 13.4 nM
COc1cc(/C=C/C(=O)/C=C/c2ccc(O)c(OC)c2)ccc1O | > 200 nM
O=C(/C=C/c1ccccc1)/C=C/c1ccccc1 | 0.053 nM
O=C(/C=C/c1ccc(O)cc1)/C=C/c1ccc(O)cc1 | 2.58 nM
O=C1/C(=C/c2ccc(O)cc2)CCC/C1=C\c1ccc(O)cc1 | 0.94 nM
COc1ccc(/C=C/C(=O)c2ccc(OC)cc2)cc1 [4,4'-DIMETHOXYCHALCONE] | 15.4 nM

More lines, now with the values ahead:

IC50 | Structure (SMILES)
0.12 nM | O=C(/C=C/c1ccccc1)c1ccc(O)cc1 [4'-HYDROXYCHALCONE]
> 200 nM | COc1ccc(/C=C2\CCC/C(=C\c3ccc(OC)cc3)C2=O)cc1
> 200 nM | COc1cc(/C=C2\CCC/C(=C\c3ccc(O)c(OC)c3)C2=O)ccc1O [CYCLOVALONE]
142 nM | COc1ccc(C(=O)/C=C/c2ccc(O)cc2)cc1
0.26 nM | O=C1/C(=C/c2ccccc2)CCC/C1=C\c1ccccc1 [2,6-DIBENZYLIDENECYCLOHEXANONE]

target: not listed separately; test: Inhibition of tissue factor in Homo sapiens (human) THP1-cells using factor 10a chromogenic substrate assessed as inhibition of LPS-iduced procoagulant activity incubated for 1 hr prior to LPS-challenge measured after 5 hr by spectrophotometric analysis; details: thp-1

IC50 | Structure (SMILES)
200 nM | COc1cc(/C=C/C(=O)CC(=O)/C=C/c2ccc(O)c(OC)c2)ccc1O [CURCUMIN]
